These results are taken from patent US20240174680A1, “CDK2 INHIBITORS AND METHODS OF USING THE SAME” (Cedilla Therapeutics, Inc., priority 2021, published 2024).

In this experiment the target is CDK2/Cyclin E1 (Homo sapiens, UniProt P24941). The experiment in a line: CDK2/Cyclin E1 Caliper LabChip EZ Reader mobility shift assay. In kind it is biochemical. On the set-up: purchased Eurofins 14-475. Particulars: read-out: Caliper Assay (CDK2/CCNE1): IC50. The essentials: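 Mobility-shift kinase assay: compound titrations preincubated 30 min with enzyme and ATP, reaction started with 5-FAM-QSPKKG-CONH2 peptide. Final 2.5 nM CDK2/Cyclin E1, 100 μM ATP, 1.5 μM peptide, HEPES pH 7.5; stopped with EDTA after 100 min. IC50 from four-parameter fit of normalized conversion ratio.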

`CNC(=O)[C@@H](NC(=O)[C@@H]1CN(C(=O)c2cncs2)CC12CN(Cc1cnco1)C2)[C@@H](C)OCC12CCC(CC1)OC2` [I-350]: the IC50 was greater than 10000 nM.

As for `CNC(=O)[C@@H](NC(=O)[C@@H]1CN(C(=O)c2cncs2)CC12CN(Cc1ccn[nH]1)C2)[C@@H](C)OCC12CCC(CC1)OC2` [I-351], the IC50 is greater than 10000 nM. Consider `CNC(=O)[C@@H](NC(=O)[C@@H]1CN(C(=O)c2cncs2)CC12CN(CC1CCCO1)C2)[C@@H](C)OCC1CCCCC1` (some centres unmarked) [I-352], for which the IC50 is greater than 10000 nM. As for `C[C@@H](OCC1CCCCC1)[C@H](NC(=O)C1CN(C(=O)c2cnn(Cc3ccccc3)c2)CC12CN(C(=O)[C@H]1CC1(C)C)C2)C(=O)NCCC(=O)O` (some centres unmarked) [I-353], the figure is no more than 10 nM; as for `CNC(=O)[C@@H](NC(=O)[C@@H]1CN(C(=O)c2cncs2)CC12CN(C(=O)[C@H]1CC1(C)C)C2)[C@@H](C)OC[C@H]1CC[C@@H](C)CC1` [I-354], no more than 10 nM; as for `CNC(=O)[C@@H](NC(=O)[C@@H]1CN(C(=O)c2cncs2)CC12CN(C(=O)[C@H]1CC1(C)C)C2)[C@@H](C)OCC1CCC2(CC1)CC2` [I-355], no more than 10 nM. Take `CNC(=O)C(NC(=O)[C@@H]1CN(C(=O)c2cncs2)CC12CN(C(=O)[C@H]1CC1(C)C)C2)C(O)Cc1ccccc1` (some centres unmarked) [I-356]: the IC50 was greater than 10000 nM. As for `C[C@@H](OC1(C2CCCCC2)CC1)[C@H](NC(=O)[C@@H]1CN(C(=O)c2cncs2)CC12CN(C(=O)[C@H]1CC1(C)C)C2)C(=O)N1CCCCC1` [I-357], the IC50 lay within 10 to 100 nM. As for `CNC(=O)[C@@H](NC(=O)[C@@H]1CN(C(=O)Cc2cn[nH]c2)CC12CN(C(=O)[C@H]1CC1(C)C)C2)[C@@H](C)OCc1ccccc1` [I-358], the IC50 is greater than 10000 nM. With `CC1(C)C[C@@H]1C(=O)N1CC2(CN(C(=O)c3cnn(Cc4ccccc4)c3)C[C@H]2C(=O)NCc2cccnn2)C1` [I-359], the IC50 is greater than 10000 nM. On to `COC[C@H]1CCCN(C(=O)[C@@H](NC(=O)[C@@H]2CN(C(=O)c3cncs3)CC23CN(C(=O)[C@H]2CC2(C)C)C3)[C@@H](C)OC(C)C2CCC(F)(F)CC2)C1` (some centres unmarked) [I-360], for which the IC50 was no more than 10 nM. As for `CC(O[C@H](C)[C@H](NC(=O)[C@@H]1CN(C(=O)c2cncs2)CC12CN(C(=O)[C@H]1CC1(C)C)C2)C(=O)N1CCC(F)(F)CC1)C1CCC(F)(F)CC1` (some centres unmarked) [I-361], the figure is no more than 10 nM. Regarding `CNC(=O)C(NC(=O)[C@@H]1CN(C(=O)c2cncs2)CC12CN(C(=O)[C@H]1CC1(C)C)C2)c1cccc(C2CCCCC2)n1` (some centres unmarked) [I-362], the IC50 lay in the range of 10 to 100 nM. Regarding `Cc1ccc(CNC(=O)[C@@H]2CN(C(=O)c3cnn(Cc4ccccc4)c3)CC23CN(C(=O)[C@H]2CC2(C)C)C3)cc1` [I-363], the IC50 fell in the range of 1000 to 10000 nM.

On to `Cc1ccc(CNC(=O)[C@@H]2CN(C(=O)c3cnn(Cc4ccccc4)c3)CC23CN(C(=O)[C@H]2CC2(C)C)C3)cn1` [I-364], for which the IC50 is greater than 10000 nM. As for `Cc1ccc(CNC(=O)[C@@H]2CN(C(=O)c3cnn(Cc4ccccc4)c3)CC23CN(C(=O)[C@H]2CC2(C)C)C3)nc1` [I-365], the IC50 was in the range of 1000 to 10000 nM. With `Cc1ccc(C(C)NC(=O)[C@@H]2CN(C(=O)c3cnn(Cc4ccccc4)c3)CC23CN(C(=O)[C@H]2CC2(C)C)C3)nn1` (some centres unmarked) [I-366], the IC50 fell in the range of 1000 to 10000 nM.

Regarding `CNC(=O)[C@@H](NC(=O)[C@@H]1CN(C(=O)c2cnn(Cc3ccccc3)c2)CC12CN(C(=O)[C@H]1CC1(C)C)C2)[C@@H](C)SCc1ccccc1` [I-368], the IC50 was 100 to 1000 nM. As to `COC[C@H]1CCCN(C(=O)[C@@H](NC(=O)[C@@H]2CN(C(=O)c3cncs3)CC23CN(C(=O)[C@H]2CC2(C)C)C3)[C@@H](C)O[C@@H](C)C2CCCCC2)C1` [I-369], the IC50 was no more than 10 nM. Then `CNC(=O)[C@@H](NC(=O)[C@@H]1CN(C(=O)c2cncs2)CC12CN(C(=O)[C@H]1CC1(C)C)C2)[C@@H](C)OCC1CCCC2(CC2)C1` (some centres unmarked) [I-370], with no more than 10 nM; and `COc1ccc(CNC(=O)[C@@H]2CN(C(=O)c3cnn(Cc4ccccc4)c3)CC23CN(C(=O)[C@H]2CC2(C)C)C3)nn1` [I-371], with greater than 10000 nM; and `CNC(=O)[C@@H](NC(=O)[C@@H]1CN(C(=O)c2cnn(Cc3ccccc3)c2)CC12CN(C(=O)[C@H]1CC1(C)C)C2)[C@@H](C)OCC1CCC(C)(C)CC1` [I-372], with no more than 10 nM. Regarding `CNC(=O)[C@@H](NC(=O)[C@@H]1CN(C(=O)Cc2cnn(Cc3ccccc3)c2)CC12CN(C(=O)[C@H]1CC1(C)C)C2)[C@@H](C)OCc1ccccc1` [I-373], the IC50 is greater than 10000 nM. Take `COC[C@H]1CCCN(C(=O)[C@@H](NC(=O)[C@@H]2CN(C(=O)c3cncs3)CC23CN(C(=O)[C@H]2CC2(C)C)C3)[C@@H](C)OC(C)C2CCCCC2)C1` (some centres unmarked) [I-374]: the IC50 is no more than 10 nM. As for `CNC(=O)[C@@H](NC(=O)[C@@H]1CN(C(=O)c2cncs2)CC12CN(C(=O)[C@H]1CC1(C)C)C2)C1(OCc2ccccc2)CC1` [I-375], the IC50 lay within 100 to 1000 nM.

As to `CNC(=O)[C@@H](NC(=O)[C@@H]1CN(C(=O)c2cncs2)CC12CN(C(=O)[C@H]1CC1(C)C)C2)[C@H](O)CC1CCCCC1` [I-379], the IC50 is greater than 10000 nM. Then `C[C@@H](OCC1CCC(F)(F)CC1)[C@H](NC(=O)[C@@H]1CN(C(=O)c2cncs2)CC12CN(C(=O)[C@H]1CC1(C)C)C2)C(=O)N1CCC2(CC1)CC2` [I-380], with no more than 10 nM; and `Cc1ccc(CNC(=O)[C@H]2CN(C(=O)c3cnn(Cc4ccccc4)c3)CC23CN(C(=O)[C@H]2CC2(C)C)C3)nn1` [I-381], with greater than 10000 nM; and `CC1(C)C[C@@H]1C(=O)N1CC2(CN(C(=O)c3cnn(Cc4ccccc4)c3)C[C@H]2C(=O)NC[C@H]2CC[C@H](C)CC2)C1` [I-382], with 1000 to 10000 nM. As to `C[C@@H](OCC1CCC(F)(F)CC1)[C@H](NC(=O)[C@@H]1CN(C(=O)c2cncs2)CC12CN(C(=O)[C@H]1CC1(C)C)C2)C(=O)N1CCC(O)CC1` [I-383], the IC50 is no more than 10 nM. Then `CNC(=O)[C@@H](NC(=O)[C@@H]1CN(C(=O)Cc2cnn(C)c2)CC12CN(C(=O)[C@H]1CC1(C)C)C2)[C@@H](C)OCc1ccccc1` [I-384], with greater than 10000 nM. In the case of `COC1CCN(C(=O)[C@@H](NC(=O)[C@@H]2CN(C(=O)c3cncs3)CC23CN(C(=O)[C@H]2CC2(C)C)C3)[C@@H](C)OCC2CCC(F)(F)CC2)CC1` [I-385], the IC50 was no more than 10 nM. For `C[C@@H](OCC1CCC(F)(F)CC1)[C@H](NC(=O)[C@@H]1CN(C(=O)c2cncs2)CC12CN(C(=O)[C@H]1CC1(C)C)C2)C(=O)N1CCC(C)(C)CC1` [I-386], the IC50 is no more than 10 nM. Then `Cc1ccc(CNC(=O)[C@@H]2CN(C(=O)c3cnn(Cc4ccccc4)c3)CC23CN(C(=O)C(C)(C)C2CC2)C3)nn1` [I-387, (S)-6-(1-benzyl-1H-pyrazole-4-carbonyl)-2-(2-cyclopropyl-2-methylpropanoyl)-N-((6-methylpyridazin-3-yl)methyl)-2,6-diazaspiro[3.4]octane-8-carboxamide], with greater than 10000 nM; and `CC1(C)C[C@@H]1C(=O)N1CC2(CN(C(=O)c3cnn(Cc4ccccc4)c3)C[C@H]2C(=O)NC[C@H]2CC[C@@H](C)CC2)C1` [I-388], with greater than 10000 nM. On to `COC[C@H]1CCCN(C(=O)[C@@H](NC(=O)[C@@H]2CN(C(=O)c3cncs3)CC23CN(C(=O)C(C)(C)C2CC2)C3)[C@@H](C)OCC2CCCCC2)C1` [I-389], for which the IC50 is no more than 10 nM. Then `COC[C@H]1CCCN(C(=O)[C@@H](NC(=O)[C@@H]2CN(C(=O)c3cncs3)CC23CN(C(=O)[C@H]2CC2(C)C)C3)[C@@H](C)OCC2CCC3(CCC3)CC2)C1` [I-390], with no more than 10 nM. As for `CNC(=O)C(NC(=O)[C@@H]1CN(C(=O)c2cnn(Cc3ccccc3)c2)CC12CN(C(=O)[C@H]1CC1(C)C)C2)c1cccc(C2CCCCC2)n1` (some centres unmarked) [I-391], the IC50 is no more than 10 nM.

As to `CC1(C)C[C@@H]1C(=O)N1CC2(CN(C(=O)c3cnn(Cc4ccccc4)c3)C[C@H]2C(=O)NCc2ccc(C(F)(F)F)nn2)C1` [I-392], the IC50 fell in the range of 1000 to 10000 nM. As to `CNC(=O)[C@@H](NC(=O)[C@@H]1CN(C(=O)c2cnn(Cc3ccccc3)c2)CC12CN(C(=O)[C@H]1CC1(C)C)C2)C(C)(C)OCc1ccccc1` [I-393], the IC50 was in the range of 10 to 100 nM.

On to `C[C@@H](OCC1CCC(F)(F)CC1)[C@H](NC(=O)C1CN(C(=O)c2cncs2)CC12CN(C(=O)[C@H]1CC1(C)C)C2)C(=O)N1CCC(OC(F)(F)F)CC1` (some centres unmarked) [I-394], for which the IC50 was no more than 10 nM.

In the case of `C[C@@H](OC(C)(C)C1CCCCC1)[C@H](NC(=O)[C@@H]1CN(C(=O)c2cncs2)CC12CN(C(=O)[C@H]1CC1(C)C)C2)C(=O)N1CCCCC1` [I-395], the IC50 was 10 to 100 nM. On to `CNC(=O)[C@@H](NC(=O)[C@@H]1CN(C(=O)c2cnn(Cc3ccccc3)c2)CC12CN(C(=O)[C@H]1CC1(C)C)C2)C1(OCC2CCCCC2)CC1` [I-396], for which the IC50 was no more than 10 nM. In the case of `C[C@@H](OCC1CCC(F)(F)CC1)[C@H](NC(=O)[C@@H]1CN(C(=O)c2cncs2)CC12CN(C(=O)[C@H]1CC1(C)C)C2)C(=O)N1CCC(CO)CC1` [I-397], the IC50 was no more than 10 nM. As to `C[C@@H](OCC1CCC(F)(F)CC1)[C@H](NC(=O)[C@@H]1CN(C(=O)c2cncs2)CC12CN(C(=O)[C@H]1CC1(C)C)C2)C(=O)N1CCC(C(F)(F)F)CC1` [I-398], the IC50 was no more than 10 nM. Then `COC[C@H]1CCCN(C(=O)[C@@H](NC(=O)[C@@H]2CN(C(=O)c3cncs3)CC23CN(C(=O)C(C)(C)C2CC2)C3)[C@@H](C)OC(C)C2CCC(F)(F)CC2)C1` (some centres unmarked) [I-399], with no more than 10 nM; and `CC1(C)C[C@@H]1C(=O)N1CC2(CN(C(=O)c3cnn(Cc4ccccc4)c3)C[C@H]2C(=O)NCc2ccc(O)nn2)C1` [I-400], with greater than 10000 nM.

As for `CNC(=O)[C@@H](NC(=O)[C@@H]1CN(C(=O)c2cncs2)CC12CN(C(=O)[C@H]1CC1(C)C)C2)C1(OCC2CCCCC2)CC1` [I-401], the IC50 lay in the range of 10 to 100 nM. Then `COC[C@H]1CCCN(C(=O)[C@@H](NC(=O)[C@@H]2CN(C(=O)c3cncs3)CC23CN(C(=O)[C@H]2CC2(C)C)C3)[C@@H](C)OC[C@H]2CC[C@H](OC)CC2)C1` [I-402], with 10 to 100 nM; and `CNC(=O)[C@@H](NC(=O)[C@@H]1CN(C(=O)c2cnn(Cc3ccccc3)c2)CC12CN(C(=O)[C@H]1CC1(C)C)C2)[C@@H](C)OC[C@H]1CC[C@H](OC)CC1` [I-403], with 10 to 100 nM.
